The target of this assay is T1, Estrogen Receptor-HaloTag (ER-Halo) fusion (Rhodococcus rhodochrous, UniProt P0A3G2, A155T/A167V/A172T/A224E/C128F/C176G/D78G/E160K/E257K/H272N/K175M/K195N/L47V/L88M/N227D/P291S/S58T/T264A/Y273L/Y87F).
T1 construct: expressed in transfected cells; host or cells: U2OS
The assay is classed as cell-based. The conditions noted are these: tracks in WT U2OS cells, ratio with PA-JF549 in the numerator, 100 nM, 1 hr. The method, then:
Using the methods described in Tables 4a and 4b above, labelling specificity of the compound of Examples 1-24 was measured and compared to PA-JF549. U2OS cells wild type or expressing ER-HaloTag fusion were incubated with PA-JF549 or Examples 1-24 for 1 hr. […] Labeling specificity, as measured by the fold reduction in nonspecific labeling of WT cells, was calculated by number of tracks measured in WT cells for Examples 1-24 compared to the number of tracks in WT cells for PA-JF549, expressed as the ratio with PA-JF549 in the numerator.

This note sets out measurements from patent publication US12681018B2, “Photoactive fluorescent compounds and use thereof for labeling of proteins” (EIKON THERAPEUTICS, INC., priority 2021, dated 2026).

Like-named read-outs stand apart in the source and are kept apart here. Some results are limits rather than exact numbers.

T1 sequence (P03372 whole entry, the tested form may be a part): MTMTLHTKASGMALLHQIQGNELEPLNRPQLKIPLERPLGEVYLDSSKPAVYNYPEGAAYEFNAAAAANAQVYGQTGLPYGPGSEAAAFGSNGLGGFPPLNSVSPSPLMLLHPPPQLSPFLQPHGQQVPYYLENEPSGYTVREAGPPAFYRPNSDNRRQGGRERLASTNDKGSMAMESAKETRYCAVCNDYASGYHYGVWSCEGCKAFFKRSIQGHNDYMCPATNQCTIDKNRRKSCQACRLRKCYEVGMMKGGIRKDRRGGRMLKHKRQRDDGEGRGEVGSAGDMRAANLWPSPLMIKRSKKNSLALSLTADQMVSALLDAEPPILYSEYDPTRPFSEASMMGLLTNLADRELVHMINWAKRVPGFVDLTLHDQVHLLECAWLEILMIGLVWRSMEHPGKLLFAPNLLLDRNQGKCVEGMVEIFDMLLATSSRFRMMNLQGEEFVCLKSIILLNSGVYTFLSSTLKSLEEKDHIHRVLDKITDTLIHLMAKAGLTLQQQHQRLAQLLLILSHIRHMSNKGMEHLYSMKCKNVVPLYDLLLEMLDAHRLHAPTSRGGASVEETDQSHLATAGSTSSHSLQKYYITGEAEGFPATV
T1 sequence (P0A3G2 other isoform, or with tags, fused parts or gaps with the stated changes): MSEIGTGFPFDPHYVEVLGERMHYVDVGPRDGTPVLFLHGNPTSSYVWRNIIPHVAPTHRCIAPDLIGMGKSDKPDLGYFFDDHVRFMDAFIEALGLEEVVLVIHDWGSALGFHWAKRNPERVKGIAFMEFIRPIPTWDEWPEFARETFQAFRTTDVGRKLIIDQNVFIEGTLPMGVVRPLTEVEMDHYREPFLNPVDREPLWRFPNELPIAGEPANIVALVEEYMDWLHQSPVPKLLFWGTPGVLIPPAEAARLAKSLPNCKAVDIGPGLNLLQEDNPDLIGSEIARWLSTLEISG

As to `CN1CCN(C(=O)C2CN(c3ccc4c(c3)Oc3cc(N5CC(C(=O)N6CCN(C)CC6)C5)ccc3C43C(=[N+]=[N-])C(=O)c4ccc(C(=O)NCCOCCOCCCCCCCl)cc43)C2)CC1` [Example 11, N-(2-(2-((6-chlorohexyl)oxy)ethoxy)ethyl)-2-diazo-3′,6′-bis(3-(4-methylpiperazine-1-carbonyl)azetidin-1-yl)-3-oxo-2,3-dihydrospiro[indene-1,9′-xanthene]-6-carboxamide], the “Fold reduction in nonspecific labeling” value (Table 4a) is on record as 1-5 and the “Fold reduction in nonspecific labeling” value (Table 4b) is reported as 1-5.

“(E)-3′,6′-di(azetidin-1-yl)-6-(4-(2-((6-chlorohexyl)oxy)ethoxy)but-1-en-1-yl)-2-diazospiro[indene-1,9′-xanthen]-3(2H)-one and (Z)-3′,6′-di(azetidin-1-yl)-6-(4-(2-((6-chlorohexyl)oxy)ethoxy)but-1-en-1-yl)-2-diazospiro[indene-1,9′-xanthen]-3(2H)-one [Example 23]”: the “Fold reduction in nonspecific labeling” value (Table 4b) is reported as greater than 10.

In the case of `CN(C)C(=O)C1CN(c2ccc3c(c2)Oc2cc(N4CC(C(=O)N(C)C)C4)ccc2C32C(=[N+]=[N-])C(=O)c3ccc(C(=O)NCc4ccc(COc5nc(N)nc6nc[nH]c56)cc4)cc32)C1` [Example 5], the “Fold reduction in nonspecific labeling” value (Table 4a) is recorded as greater than 10 and the “Fold reduction in nonspecific labeling” value (Table 4b) was greater than 10. Take `[N-]=[N+]=C1C(=O)c2ccc(C(=O)NCCOCCOCCCCCCCl)cc2C12c1ccc(N3CC(C(=O)N4CCOCC4)C3)cc1Oc1cc(N3CC(C(=O)N4CCOCC4)C3)ccc12` [Example 9, N-(2-(2-((6-chlorohexyl)oxy)ethoxy)ethyl)-2-diazo-3′,6′-bis(3-(morpholine-4-carbonyl)azetidin-1-yl)-3-oxo-2,3-dihydrospiro[indene-1,9′-xanthene]-6-carboxamide]: the “Fold reduction in nonspecific labeling” value runs as follows: (Table 4a) greater than 10; (Table 4b) greater than 10. `[N-]=[N+]=C1C(=O)c2ccc(C(=O)NCCOCCOCCCCCCCl)cc2C12c1ccc(N3CC[C@@H]3CO)cc1Oc1cc(N3CC[C@@H]3CO)ccc12` [Example 15, N-(2-(2-((6-chlorohexyl)oxy)ethoxy)ethyl)-2-diazo-3′,6′-bis((R)-2-(hydroxymethyl)azetidin-1-yl)-3-oxo-2,3-dihydrospiro[indene-1,9′-xanthene]-6-carboxamide]: the “Fold reduction in nonspecific labeling” value runs as follows: (Table 4a) 5-10; (Table 4b) 5-10. Regarding `CN1CC2CC(C1)N2c1ccc2c(c1)Oc1cc(N3C4CC3CN(C)C4)ccc1C21C(=[N+]=[N-])C(=O)c2ccc(C(=O)NCCOCCOCCCCCCCl)cc21` (stereo not shown) [Example 18, N-(2-(2-((6-chlorohexyl)oxy)ethoxy)ethyl)-2-diazo-3′,6′-bis(3-methyl-3,6-diazabicyclo[3.1.1]heptan-6-yl)-3-oxo-2,3-dihydrospiro[indene-1,9′-xanthene]-6-carboxamide], the “Fold reduction in nonspecific labeling” value runs as follows: (Table 4a) greater than 10; (Table 4b) greater than 10. For the molecule `CNC(=O)C1CN(c2ccc3c(c2)Oc2cc(N4CC(C(=O)NC)C4)ccc2C32C(=[N+]=[N-])C(=O)c3ccc(C(=O)NCCOCCOCCCCCCCl)cc32)C1` [Example 12, 1,1′-(6-((2-(2-((6-chlorohexyl)oxy)ethoxy)ethyl)carbamoyl)-2-diazo-3-oxo-2,3-dihydrospiro[indene-1,9′-xanthene]-3′,6′-diyl)bis(N-methylazetidine-3-carboxamide)], the “Fold reduction in nonspecific labeling” value is, setting by setting: (Table 4a) greater than 10; (Table 4b) greater than 10. For the molecule `CN(C)C1CN(c2ccc3c(c2)Oc2cc(N4CC(N(C)C)C4)ccc2C32C(=[N+]=[N-])C(=O)c3ccc(C(=O)NCCOCCOCCCCCCCl)cc32)C1` [Example 13, N-(2-(2-((6-chlorohexyl)oxy)ethoxy)ethyl)-2-diazo-3′,6′-bis(3-(dimethylamino)azetidin-1-yl)-3-oxo-2,3-dihydrospiro[indene-1,9′-xanthene]-6-carboxamide], the “Fold reduction in nonspecific labeling” value is 5-10 (Table 4a) and 5-10 (Table 4b). For `CN(CCOCCOCCCCCCCl)C(=O)c1ccc2c(c1)C1(C(=[N+]=[N-])C2=O)c2ccc(N3CCC3)cc2Oc2cc(N3CCC3)ccc21` [Example 8, 3′,6′-di(azetidin-1-yl)-N-(2-(2-((6-chlorohexyl)oxy)ethoxy)ethyl)-2-diazo-N-methyl-3-oxo-2,3-dihydrospiro[indene-1,9′-xanthene]-6-carboxamide], the “Fold reduction in nonspecific labeling” value runs as follows: (Table 4a) 5-10; (Table 4b) 5-10.

As to `COC(=O)[C@H]1CCN1c1ccc2c(c1)Oc1cc(N3CC[C@@H]3C(=O)OC)ccc1C21C(=[N+]=[N-])C(=O)c2ccc(C(=O)NCCOCCOCCCCCCCl)cc21` [Example 6], the “Fold reduction in nonspecific labeling” value runs as follows: (Table 4a) 1-5; (Table 4b) 1-5. With `CN(C)C(=O)C1CN(c2ccc3c(c2)[Si](C)(C)c2cc(N4CC(C(=O)N(C)C)C4)ccc2C32C(=[N+]=[N-])C(=O)c3ccc(C(=O)NCCOCCOCCCCCCCl)cc32)C1` [Example 19], the “Fold reduction in nonspecific labeling” value (Table 4b) is on record as greater than 10. Same read-out and setting: next, “1,1′-(6-((2-(2-((6-chlorohexyl)oxy)ethoxy)ethyl)carbamoyl)-2-diazo-3-oxo-2,3-dihydrospiro[indene-1,9′-xanthene]-3′,6′-diyl)bis(azetidine-3-carboxamide [Example 20]”: greater than 10; `[N-]=[N+]=C1C(=O)c2ccc(CCCCOCCOCCCCCCCl)cc2C12c1ccc(N3CCC3)cc1Oc1cc(N3CCC3)ccc12` [Example 24, 3′,6′-di(azetidin-1-yl)-6-(4-(2-((6-chlorohexyl)oxy)ethoxy)butyl)-2-diazospiro[indene-1,9′-xanthen]-3(2H)-one]: 1-5.

For `[N-]=[N+]=C1C(=O)c2ccc(C(=O)NCCOCCOCCCCCCCl)cc2C12c1ccc(N3CC(O)C3)cc1Oc1cc(N3CC(O)C3)ccc12` [Example 7, N-(2-(2-((6-chlorohexyl)oxy)ethoxy)ethyl)-2-diazo-3′,6′-bis(3-hydroxyazetidin-1-yl)-3-oxo-2,3-dihydrospiro[indene-1,9′-xanthene]-6-carboxamide], the “Fold reduction in nonspecific labeling” value is reported as greater than 10 (Table 4a) and greater than 10 (Table 4b). `[N-]=[N+]=C1C(=O)c2ccc(C(=O)NCCOCCOCCCCCCCl)cc2C12c1ccc(N3CC(C(=O)N4CCCC4)C3)cc1Oc1cc(N3CC(C(=O)N4CCCC4)C3)ccc12` [Example 10, N-(2-(2-((6-chlorohexyl)oxy)ethoxy)ethyl)-2-diazo-3-oxo-3′,6′-bis(3-(pyrrolidine-1-carbonyl)azetidin-1-yl)-2,3-dihydrospiro[indene-1,9′-xanthene]-6-carboxamide]: the “Fold reduction in nonspecific labeling” value is, setting by setting: (Table 4a) 5-10; (Table 4b) 5-10. Regarding `[N-]=[N+]=C1C(=O)c2ccc(NC(=O)CCOCCOCCCCCCCl)cc2C12c1ccc(N3CCC3)cc1Oc1cc(N3CCC3)ccc12` [Example 22, 3-(2-((6-chlorohexyl)oxy)ethoxy)-N-(3′,6′-di(azetidin-1-yl)-2-diazo-3-oxo-2,3-dihydrospiro[indene-1,9′-xanthen]-6-yl)propanamide], the “Fold reduction in nonspecific labeling” value (Table 4b) was 5-10.

For “3′,6′-di(azetidin-1-yl)-6-((2-(2-((6-chlorohexyl)oxy)ethoxy)ethyl)amino)-3H-spiro[isobenzofuran-1,9′-xanthen]-3-one [Example 21]”, the “Fold reduction in nonspecific labeling” value (Table 4b) was 5-10.

Take `[N-]=[N+]=C1C(=O)c2ccc(C(=O)NCCOCCOCCCCCCCl)cc2C12c1ccc(N3C4COCC3C4)cc1Oc1cc(N3C4COCC3C4)ccc12` (stereo not shown) [Example 17, 3′,6′-di(3-oxa-6-azabicyclo[3.1.1]heptan-6-yl)-N-(2-(2-((6-chlorohexyl)oxy)ethoxy)ethyl)-2-diazo-3-oxo-2,3-dihydrospiro[indene-1,9′-xanthene]-6-carboxamide]: the “Fold reduction in nonspecific labeling” value is, setting by setting: (Table 4a) 1-5; (Table 4b) 1-5. For `CN(C)C(=O)[C@@H]1CCN1c1ccc2c(c1)Oc1cc(N3CC[C@H]3C(=O)N(C)C)ccc1C21C(=[N+]=[N-])C(=O)c2ccc(C(=O)NCCOCCOCCCCCCCl)cc21` [Example 14, (2S,2'S)-1,1′-(6-((2-(2-((6-chlorohexyl)oxy)ethoxy)ethyl)carbamoyl)-2-diazo-3-oxo-2,3-dihydrospiro[indene-1,9′-xanthene]-3′,6′-diyl)bis(N,N-dimethylazetidine-2-carboxamide)], the “Fold reduction in nonspecific labeling” value by setting is: (Table 4a) greater than 10; (Table 4b) greater than 10. With `CN(C)C(=O)[C@H]1CCN(c2ccc3c(c2)Oc2cc(N4CC[C@H](C(=O)N(C)C)C4)ccc2C32C(=[N+]=[N-])C(=O)c3ccc(C(=O)NCCOCCOCCCCCCCl)cc32)C1` [Example 16, (3S,3′S)-1,1′-(6-((2-(2-((6-chlorohexyl)oxy)ethoxy)ethyl)carbamoyl)-2-diazo-3-oxo-2,3-dihydrospiro[indene-1,9′-xanthene]-3′,6′-diyl)bis(N,N-dimethylpyrrolidine-3-carboxamide)], the “Fold reduction in nonspecific labeling” value runs as follows: (Table 4a) 5-10; (Table 4b) 5-10.
